Measured values as given in ChEMBL document CHEMBL1201862, “PubChem BioAssay data set” (2004).
Active and inactive are the calls of the source.

How the values were obtained:
cells [1] = type: functional, cell-based
cells [2] = type: functional, cell-based; remark: listed apart in the source
[3] = molecular target: T1, Corticotropin-releasing factor receptor 2/Corticotropin-releasing factor-binding protein (Homo sapiens, UniProt P24387+Q13324); experiment: Dose Response confirmation of uHTS hits for small molecule antagonists of the CRF-binding protein and CRF-R2 receptor complex.; type: functional; details: read-out: IC50_Mean
T1 sequence (Q13324 whole entry): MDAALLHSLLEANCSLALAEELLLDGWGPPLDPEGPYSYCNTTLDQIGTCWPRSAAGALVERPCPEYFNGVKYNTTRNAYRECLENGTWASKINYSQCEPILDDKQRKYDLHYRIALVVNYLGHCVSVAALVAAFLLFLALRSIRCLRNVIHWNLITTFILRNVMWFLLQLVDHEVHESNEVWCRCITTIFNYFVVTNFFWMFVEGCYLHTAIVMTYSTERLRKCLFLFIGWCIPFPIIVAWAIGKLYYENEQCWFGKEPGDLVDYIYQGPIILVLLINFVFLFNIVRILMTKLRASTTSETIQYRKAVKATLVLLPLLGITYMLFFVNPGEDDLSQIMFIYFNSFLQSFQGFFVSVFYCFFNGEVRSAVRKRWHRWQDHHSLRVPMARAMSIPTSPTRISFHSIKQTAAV
T1 sequence (P24387 whole entry): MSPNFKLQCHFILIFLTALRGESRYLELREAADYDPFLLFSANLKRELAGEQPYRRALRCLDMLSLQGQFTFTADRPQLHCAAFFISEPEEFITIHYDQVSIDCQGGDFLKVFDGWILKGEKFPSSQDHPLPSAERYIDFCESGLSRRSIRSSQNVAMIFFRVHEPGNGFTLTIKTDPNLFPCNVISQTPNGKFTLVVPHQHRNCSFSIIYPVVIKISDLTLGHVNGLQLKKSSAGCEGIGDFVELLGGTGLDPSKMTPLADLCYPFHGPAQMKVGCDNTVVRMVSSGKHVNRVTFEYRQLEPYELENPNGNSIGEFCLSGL

[4] = molecular target: T1, Corticotropin-releasing factor receptor 2/Corticotropin-releasing factor-binding protein; experiment: activators of CRF receptor 2 with binding protein – uHTS hits, confirmation (AID 602473); type: functional; details: read-out: EC50_Mean
[5] = molecular target: T2, Calpain-2 catalytic subunit (Sus scrofa, UniProt P43367); experiment: m-calpain protease blockers, concentration series – biochemical, fluorogenic peptide substrate, dose response (AID 1420); type: functional
T2 sequence (P43367 whole entry): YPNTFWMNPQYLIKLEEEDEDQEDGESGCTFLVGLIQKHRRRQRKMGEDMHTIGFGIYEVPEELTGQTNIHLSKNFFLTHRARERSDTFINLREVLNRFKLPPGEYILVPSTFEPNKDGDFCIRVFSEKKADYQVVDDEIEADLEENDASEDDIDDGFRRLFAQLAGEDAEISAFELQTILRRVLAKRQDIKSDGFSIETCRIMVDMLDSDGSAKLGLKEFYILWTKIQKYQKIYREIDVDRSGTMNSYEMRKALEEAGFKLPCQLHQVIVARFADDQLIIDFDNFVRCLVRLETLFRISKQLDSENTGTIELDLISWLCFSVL

[6] = reduced cellular PGC1a acetyl-lysine signal – cell-based, cherry-picked samples, dose response (AID 720514); type: functional;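 also: potency may reflect raised or lowered acetylation signal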
[7] = blockers of HIV-1 envelope-mediated cell-cell fusion – cherry-pick, dose response (AID 652057); type: functional, cell-based
[8] = blockers of HIV-1 ZM109 envelope-driven cell-cell fusion – HeLa effector, CEM target cells, luciferase, cherry-pick, dose response (AID 652058); type: functional, cell-based;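 also: luciferase signal from HIV-1 Env mediated cell-cell fusion of effector and target cells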
[9] = off-target signal loss in HeLa-CEM21 co-culture – HeLa F-luc CTL cells, cherry-picked, counter-screen for HIV-1 Env fusion inhibitor project, dose response (AID 652040); type: functional, cell-based;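 also: potency for signal decrease marking cytotoxic or nonspecific inhibition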
[10] = Luminescence Cell-Based Dose Confirmation HTS to Identify Activators of 5'UTR Stem-Loop Driven Alpha-Synuclein mRNA Translation in H4 Neuroglioblastoma Cells. [Related pubchem assays: 1829 (Project Summary), 1814 (Primary HTS)]; type: functional
[11] = Luminescence Cell-Based Dose Response HTS to Identify Activators of Luciferase Translation or Activity in H4 […] Cells. [Related pubchem assays: 1829 (Project Summary), 1814 (Primary HTS)]; type: functional
H4 = experiment: Luminescence Cell-Based Dose Response HTS to Identify Activators of 5'UTR Stem-Loop Driven Prion Protein mRNA Translation in H4 Neuroglioblastoma Cells. [Related pubchem assays: 1829 (Project Summary), 1814 (Primary HTS)]; type: functional; details: Homo sapiens
[12] = Trypanosoma cruzi growth suppression in host cells – NIH3T3 host cells, beta-gal luminescence, confirmation (AID 2044); type: functional, cell-based;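 also: intracellular parasites grown in NIH/3T3 mouse fibroblasts as host cells; luminescent beta-galactosidase reporter signal from transgenic T. cruzi replicating inside host cells; inhibitors lower the luminescence signal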
[13] = NIH3T3 cell viability loss – ATP luminescence, mouse fibroblasts, counter-screen, dose response (AID 2010); type: functional, cell-based;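 also: cells exposed to compound for about 90 hours before reading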
Paired box protein Pax-8 = Paired box protein Pax-8 (Homo sapiens, UniProt Q06710); experiment: PAX8 transcriptional activity inhibition in RMG-I – RMG-I cells, luciferase, cherry-pick, dose response (AID 687027); type: functional, cell-based;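 also: luciferase reporter driven by Pax8 target thyroperoxidase promoter measured by SteadyGlo luminescence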
[14] = molecular target: Dual specificity tyrosine-phosphorylation-regulated kinase 1A (Rattus norvegicus, UniProt Q63470); type: biochemical, Homo sapiens
Estrogen receptor = molecular target: T3, Estrogen receptor (Homo sapiens, UniProt P03372);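 also: potency for inhibiting coactivator peptide recruitment to the receptor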
T3 sequence (P03372 whole entry): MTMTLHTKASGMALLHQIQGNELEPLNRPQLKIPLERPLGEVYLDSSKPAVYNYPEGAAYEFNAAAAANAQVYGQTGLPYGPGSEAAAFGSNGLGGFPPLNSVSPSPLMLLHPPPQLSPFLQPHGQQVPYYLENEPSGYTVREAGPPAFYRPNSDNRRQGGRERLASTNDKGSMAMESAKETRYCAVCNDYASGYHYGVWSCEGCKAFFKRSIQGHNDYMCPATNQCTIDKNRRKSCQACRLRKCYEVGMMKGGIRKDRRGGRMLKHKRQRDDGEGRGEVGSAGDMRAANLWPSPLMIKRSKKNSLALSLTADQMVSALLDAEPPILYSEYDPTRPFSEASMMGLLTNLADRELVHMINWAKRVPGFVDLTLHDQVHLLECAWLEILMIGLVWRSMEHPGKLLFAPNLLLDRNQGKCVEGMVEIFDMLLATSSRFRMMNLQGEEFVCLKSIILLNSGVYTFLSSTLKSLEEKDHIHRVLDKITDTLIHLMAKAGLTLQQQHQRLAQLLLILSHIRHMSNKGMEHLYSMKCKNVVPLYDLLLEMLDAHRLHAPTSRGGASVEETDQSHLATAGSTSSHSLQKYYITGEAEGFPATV

Cytochrome P450 2C19 = Cytochrome P450 2C19 (Homo sapiens, UniProt P33261); experiment: Cytochrome panel assay with activity outcomes. Panel member name: p450-cyp2c19 Compounds with AC50 equal or less than 10 uM are considered active; type: functional; details: read-out: AC50
[15] = molecular target: T4, Long-chain-fatty-acid--AMP ligase FadD28 (Mycobacterium tuberculosis, UniProt P9WQ59); experiment: Fluorescence polarization aasay to screen for inhibitors that compete for the binding of FadD28 to a bisubstrate Measured in Biochemical System Using Plate Reader - 2147-01_Inhibitor_Dose_CherryPick_Activity.; type: functional, Mycobacterium tuberculosis H37Rv
T4 sequence (P9WQ59 whole entry): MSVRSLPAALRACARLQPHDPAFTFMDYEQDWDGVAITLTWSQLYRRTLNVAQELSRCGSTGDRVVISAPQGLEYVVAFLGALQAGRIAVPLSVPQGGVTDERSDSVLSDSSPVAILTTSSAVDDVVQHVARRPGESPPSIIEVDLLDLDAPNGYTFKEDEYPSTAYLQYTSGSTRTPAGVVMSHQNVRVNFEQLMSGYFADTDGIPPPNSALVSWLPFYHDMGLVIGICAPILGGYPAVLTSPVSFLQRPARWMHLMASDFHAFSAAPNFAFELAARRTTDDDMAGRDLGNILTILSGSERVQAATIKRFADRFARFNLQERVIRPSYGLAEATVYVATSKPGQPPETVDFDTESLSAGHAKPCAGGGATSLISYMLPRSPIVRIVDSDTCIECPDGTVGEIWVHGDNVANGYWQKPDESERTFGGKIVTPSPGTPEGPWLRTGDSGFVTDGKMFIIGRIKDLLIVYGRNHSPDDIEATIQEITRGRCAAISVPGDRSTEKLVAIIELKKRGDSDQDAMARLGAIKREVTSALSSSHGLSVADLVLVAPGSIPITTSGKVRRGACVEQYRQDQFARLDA

[16] = molecular target: Peroxisome proliferator-activated receptor gamma/Nuclear receptor coactivator 2 (Homo sapiens, UniProt P37231); type: functional;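 also: agonist potency for raising coactivator recruitment to the receptor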
[17] = molecular target: Peroxisome proliferator-activated receptor gamma/Nuclear receptor coactivator 1 (Homo sapiens, UniProt P37231); type: functional;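 also: agonist potency as compounds enhance coactivator SRC-1 recruitment to PPARgamma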
[18] = molecular target: Peroxisome proliferator-activated receptor gamma/Nuclear receptor coactivator 3 (Homo sapiens, UniProt P37231); type: functional;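 also: agonist potency for raising coactivator recruitment to the receptor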

Chain of Paired box protein Pax-8 (Q06710 whole entry): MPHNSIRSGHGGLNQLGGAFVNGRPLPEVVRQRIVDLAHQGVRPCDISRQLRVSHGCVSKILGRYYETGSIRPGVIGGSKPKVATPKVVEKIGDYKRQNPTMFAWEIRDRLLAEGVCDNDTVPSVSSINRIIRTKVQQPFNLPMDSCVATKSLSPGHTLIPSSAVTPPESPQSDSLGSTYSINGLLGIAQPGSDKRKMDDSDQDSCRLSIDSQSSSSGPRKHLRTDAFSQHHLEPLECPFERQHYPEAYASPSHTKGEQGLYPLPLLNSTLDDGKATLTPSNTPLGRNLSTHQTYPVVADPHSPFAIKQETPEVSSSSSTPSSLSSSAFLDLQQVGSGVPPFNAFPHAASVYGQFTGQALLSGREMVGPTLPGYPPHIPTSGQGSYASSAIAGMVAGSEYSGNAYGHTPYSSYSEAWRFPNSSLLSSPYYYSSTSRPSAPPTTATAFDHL
Chain of Cytochrome P450 2C19 (P33261 whole entry): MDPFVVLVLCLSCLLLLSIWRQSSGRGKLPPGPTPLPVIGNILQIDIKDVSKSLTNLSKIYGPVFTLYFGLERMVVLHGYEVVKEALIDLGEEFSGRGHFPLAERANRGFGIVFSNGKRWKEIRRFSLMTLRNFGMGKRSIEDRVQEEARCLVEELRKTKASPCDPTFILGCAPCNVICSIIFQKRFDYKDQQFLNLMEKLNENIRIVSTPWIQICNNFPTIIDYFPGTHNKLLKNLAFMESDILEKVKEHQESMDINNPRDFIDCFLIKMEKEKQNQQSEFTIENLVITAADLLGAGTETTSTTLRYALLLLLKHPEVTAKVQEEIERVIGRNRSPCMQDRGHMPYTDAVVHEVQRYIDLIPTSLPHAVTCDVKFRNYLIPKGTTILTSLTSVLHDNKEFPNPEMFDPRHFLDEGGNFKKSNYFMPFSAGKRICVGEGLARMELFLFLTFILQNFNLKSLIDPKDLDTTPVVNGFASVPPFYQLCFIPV
Chain of Peroxisome proliferator-activated receptor gamma/Nuclear receptor coactivator 2 (P37231 whole entry): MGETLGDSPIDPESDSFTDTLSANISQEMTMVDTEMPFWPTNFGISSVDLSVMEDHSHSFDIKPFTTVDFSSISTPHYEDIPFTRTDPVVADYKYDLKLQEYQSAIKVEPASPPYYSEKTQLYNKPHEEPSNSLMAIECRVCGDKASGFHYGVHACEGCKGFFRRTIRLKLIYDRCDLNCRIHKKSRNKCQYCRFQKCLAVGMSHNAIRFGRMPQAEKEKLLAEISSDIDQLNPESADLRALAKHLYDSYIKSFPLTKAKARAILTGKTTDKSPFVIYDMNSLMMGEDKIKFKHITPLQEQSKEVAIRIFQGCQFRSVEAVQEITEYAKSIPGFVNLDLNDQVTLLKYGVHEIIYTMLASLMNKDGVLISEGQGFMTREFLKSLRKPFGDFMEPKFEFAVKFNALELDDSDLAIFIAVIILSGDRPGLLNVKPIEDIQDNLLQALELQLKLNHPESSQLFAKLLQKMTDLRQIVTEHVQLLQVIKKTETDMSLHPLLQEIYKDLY
Chain of Peroxisome proliferator-activated receptor gamma/Nuclear receptor coactivator 2 (Q15596 whole entry, further chain): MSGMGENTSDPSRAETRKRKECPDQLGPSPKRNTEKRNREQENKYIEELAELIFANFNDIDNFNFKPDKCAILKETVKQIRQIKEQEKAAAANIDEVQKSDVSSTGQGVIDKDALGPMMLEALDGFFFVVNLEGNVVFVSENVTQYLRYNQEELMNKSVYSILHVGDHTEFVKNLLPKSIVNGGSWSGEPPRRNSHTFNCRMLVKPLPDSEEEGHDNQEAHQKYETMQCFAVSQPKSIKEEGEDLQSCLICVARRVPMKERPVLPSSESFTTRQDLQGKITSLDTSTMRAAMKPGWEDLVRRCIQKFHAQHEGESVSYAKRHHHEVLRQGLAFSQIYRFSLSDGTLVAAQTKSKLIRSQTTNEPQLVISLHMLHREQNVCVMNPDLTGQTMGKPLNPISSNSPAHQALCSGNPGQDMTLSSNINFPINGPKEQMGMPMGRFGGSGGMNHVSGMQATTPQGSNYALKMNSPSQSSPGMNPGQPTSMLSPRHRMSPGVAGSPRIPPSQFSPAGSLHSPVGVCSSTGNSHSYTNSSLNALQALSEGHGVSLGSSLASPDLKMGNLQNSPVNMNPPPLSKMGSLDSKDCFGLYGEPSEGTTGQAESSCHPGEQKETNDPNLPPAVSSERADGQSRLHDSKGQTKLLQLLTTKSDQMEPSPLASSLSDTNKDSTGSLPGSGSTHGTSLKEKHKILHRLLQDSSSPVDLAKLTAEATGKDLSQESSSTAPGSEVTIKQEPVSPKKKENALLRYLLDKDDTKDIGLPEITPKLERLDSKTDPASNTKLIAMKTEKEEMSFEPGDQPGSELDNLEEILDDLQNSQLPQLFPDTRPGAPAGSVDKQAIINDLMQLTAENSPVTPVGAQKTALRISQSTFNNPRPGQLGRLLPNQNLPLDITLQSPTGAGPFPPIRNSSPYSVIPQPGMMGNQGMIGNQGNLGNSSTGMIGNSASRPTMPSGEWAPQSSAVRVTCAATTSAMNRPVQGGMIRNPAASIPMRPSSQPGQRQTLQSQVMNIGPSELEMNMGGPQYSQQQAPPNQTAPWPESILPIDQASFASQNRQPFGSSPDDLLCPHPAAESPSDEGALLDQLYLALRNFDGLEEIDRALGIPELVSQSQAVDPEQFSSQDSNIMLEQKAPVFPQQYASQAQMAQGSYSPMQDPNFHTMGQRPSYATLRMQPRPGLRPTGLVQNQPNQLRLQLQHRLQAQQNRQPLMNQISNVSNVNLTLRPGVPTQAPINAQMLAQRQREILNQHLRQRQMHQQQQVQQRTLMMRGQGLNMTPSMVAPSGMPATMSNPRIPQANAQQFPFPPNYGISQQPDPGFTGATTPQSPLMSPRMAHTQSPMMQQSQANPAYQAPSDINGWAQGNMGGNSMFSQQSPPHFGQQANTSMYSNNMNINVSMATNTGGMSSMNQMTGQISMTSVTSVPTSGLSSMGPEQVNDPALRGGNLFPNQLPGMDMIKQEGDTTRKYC
Chain of Peroxisome proliferator-activated receptor gamma/Nuclear receptor coactivator 1 (P37231 whole entry): as the sequence (P37231 whole entry) above
Chain of Peroxisome proliferator-activated receptor gamma/Nuclear receptor coactivator 1 (Q15788 whole entry, further chain): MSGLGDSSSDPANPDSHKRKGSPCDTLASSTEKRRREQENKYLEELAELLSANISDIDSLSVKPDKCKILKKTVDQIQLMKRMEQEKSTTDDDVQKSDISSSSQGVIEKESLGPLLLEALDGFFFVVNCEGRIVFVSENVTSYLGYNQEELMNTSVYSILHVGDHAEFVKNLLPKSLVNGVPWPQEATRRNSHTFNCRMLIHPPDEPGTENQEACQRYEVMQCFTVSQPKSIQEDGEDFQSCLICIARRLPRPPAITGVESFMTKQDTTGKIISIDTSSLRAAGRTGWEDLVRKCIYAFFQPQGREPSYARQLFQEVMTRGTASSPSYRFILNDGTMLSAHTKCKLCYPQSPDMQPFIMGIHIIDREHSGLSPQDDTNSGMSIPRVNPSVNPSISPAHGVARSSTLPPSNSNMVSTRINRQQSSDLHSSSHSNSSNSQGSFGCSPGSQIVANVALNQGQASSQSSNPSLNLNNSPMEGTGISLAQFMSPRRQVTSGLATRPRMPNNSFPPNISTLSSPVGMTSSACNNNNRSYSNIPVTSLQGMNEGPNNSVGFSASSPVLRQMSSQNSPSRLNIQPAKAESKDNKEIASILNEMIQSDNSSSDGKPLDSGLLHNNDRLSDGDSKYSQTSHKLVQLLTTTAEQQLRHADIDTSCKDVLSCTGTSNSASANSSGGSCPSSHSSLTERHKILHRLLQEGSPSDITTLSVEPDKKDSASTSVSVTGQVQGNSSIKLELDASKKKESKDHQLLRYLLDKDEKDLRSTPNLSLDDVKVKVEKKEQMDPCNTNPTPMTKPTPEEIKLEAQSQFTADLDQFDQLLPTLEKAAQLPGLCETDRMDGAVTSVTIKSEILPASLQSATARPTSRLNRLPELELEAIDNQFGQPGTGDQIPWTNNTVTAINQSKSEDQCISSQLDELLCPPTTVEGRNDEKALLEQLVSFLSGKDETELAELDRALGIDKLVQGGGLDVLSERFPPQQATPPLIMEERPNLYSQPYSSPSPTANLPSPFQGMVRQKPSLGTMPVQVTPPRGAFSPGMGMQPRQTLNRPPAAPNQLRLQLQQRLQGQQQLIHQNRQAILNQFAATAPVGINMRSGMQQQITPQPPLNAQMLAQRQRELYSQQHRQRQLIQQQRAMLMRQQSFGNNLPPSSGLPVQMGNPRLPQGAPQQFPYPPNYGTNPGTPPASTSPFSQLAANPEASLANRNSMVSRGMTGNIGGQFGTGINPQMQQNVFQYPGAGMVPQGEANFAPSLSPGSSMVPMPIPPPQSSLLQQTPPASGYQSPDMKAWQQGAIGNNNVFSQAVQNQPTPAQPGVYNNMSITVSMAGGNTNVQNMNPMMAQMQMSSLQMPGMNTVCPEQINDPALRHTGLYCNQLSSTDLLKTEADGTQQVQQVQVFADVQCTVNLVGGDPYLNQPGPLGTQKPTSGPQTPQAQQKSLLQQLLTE

For `COc1ccc(/C=C/C(=O)NCCSCc2ccco2)cc1OC`, the EC50 (cells [1]) was > 350 µM (not active), the EC50 (cells [2]) was > 350 µM (not active) and the IC50 [3] was > 47.1 µM (inactive). The EC50 [4] was > 53 µM (inactive).
In the case of `O=C(COn1nnc2ccc(Cl)cc21)NC12CC3CC(CC(C3)C1)C2`, the IC50 [5] is reported as > 50 µM (not active) and the AC50 [6] is reported as 31.5 µM (active).
With `CCOC(=O)c1ccc(NC2c3ncccc3C(=O)N2Cc2ccc(F)cc2)cc1` (stereo unspecified) the AC50 [7] was 3.06 µM (active), the AC50 [8] was 0.521 µM (active) and the AC50 [9] was 2.84 µM (active).
With `N#CC1(NC(=O)Cn2ncc(Cl)c(Cl)c2=O)CCCCC1` the EC50 [10] was > 120 µM (not active), the EC50 [11] was > 60 µM (not active) and the EC50 (H4) was > 120 µM (not active). For the same compound, the EC50 [12] was 2.22 µM (active), the EC50 [13] was 3.27 µM (active) and the AC50 (Paired box protein Pax-8) was 3.01 µM (active). For the same compound, the AC50 [6] was 10.8 µM (active).
In the case of `C=CCOc1ccc(/C=C2\SC(Nc3cccnc3)=NC2=O)cc1`, the EC50 (cells [1]) is reported as > 350 µM (not active), the EC50 (cells [2]) is reported as > 350 µM (not active) and the AC50 [14] is reported as 2.93 µM (active).
In the case of `Cc1cc(C)c(NC(=O)CSc2nc3ccc(NC(=O)CSc4nnnn4Cc4ccccc4)cc3s2)c(C)c1`, the IC50 (Estrogen receptor) is reported as > 50 µM (not active).
In the case of `Cc1cccc(NC(=O)Cn2c(=O)n3nc(CCn4nc(C)cc4C)nc3c3ccccc32)c1`, the AC50 (Cytochrome P450 2C19) is reported as 0.0355 µM (inconclusive) and the AC50 [15] is reported as 44.4 µM (active).
In the case of `CCOC(=O)CCC(=O)Nc1ccccc1C(N)=O`, the IC50 (Estrogen receptor) is reported as > 50 µM (not active).
With `COc1ccc(-c2c(C#N)c(C)nc3c2C(=O)c2ccccc2-3)cc1` the EC50 [16] was 32.6 µM (not active), the EC50 [17] was 55.3 µM (not active) and the EC50 [18] was 48.3 µM (not active).
